Five molecules from PubChem BioAssay AID1963866 (Molecular Pharmacology Branch, DTP, NCI, 2024) can be followed below.

Bounds are passed on as bounds.

The assay relates to PDC KRAS tumor spheroids with HUVEC/MSC, viability. The experiment in a line: Anticancer human tumor 349418-098-R-PDC patient-derived lung adenocarcinoma cell line growth inhibition [KRAS2]. To be noted: for viability, T/C: stronger effect = lower value. In short, it runs like this:
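KRAS-mutant tumor cells were grown as spheroids with HUVEC endothelial cells and human MSCs as stroma. Targeted agents were tested alone and with KRAS pathway inhibitors. Doses started at or near clinical Cmax, or 10 microM, descending half-log.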

Where [1] appears, read: curve of first compound, second compound 0.1 µM.
Setting [2] is: curve of first compound, second compound 0.316 µM.
Setting [3] is: curve of first compound, second compound 1 µM.
[4] abbreviates: curve of first compound, second compound 3.16 µM.
Where [5] appears, read: curve of first compound, second compound 10 µM.
Setting [6] is: second compound 0.1 µM, first compound 0.0316 µM.
[7] abbreviates: second compound 0.1 µM, first compound 0.1 µM.
Setting [8] is: second compound 0.1 µM, first compound 0.316 µM.
Setting [9] is: second compound 0.1 µM, first compound 1 µM.
Setting [10] is: second compound 0.1 µM, first compound 3.16 µM.
Setting [11] is: second compound 0.316 µM, first compound 0.0316 µM.
The mark [12] stands for this setting: second compound 0.316 µM, first compound 0.1 µM.
Setting [13] is: second compound 0.316 µM, first compound 0.316 µM.
The mark [14] stands for this setting: second compound 0.316 µM, first compound 1 µM.
[15] abbreviates: second compound 0.316 µM, first compound 3.16 µM.
Setting [16] is: second compound 1 µM, first compound 0.0316 µM.
Where [17] appears, read: second compound 1 µM, first compound 0.1 µM.
Setting [18] is: second compound 1 µM, first compound 0.316 µM.
[19] abbreviates: second compound 1 µM, first compound 1 µM.
[20] abbreviates: second compound 1 µM, first compound 3.16 µM.
Where [21] appears, read: second compound 3.16 µM, first compound 0.0316 µM.
[22] abbreviates: second compound 3.16 µM, first compound 0.1 µM.
Setting [23] is: second compound 3.16 µM, first compound 0.316 µM.
[24] abbreviates: second compound 3.16 µM, first compound 1 µM.
[25] abbreviates: second compound 3.16 µM, first compound 3.16 µM.
Where [26] appears, read: second compound 10 µM, first compound 0.0316 µM.
[27] abbreviates: second compound 10 µM, first compound 0.1 µM.
Where [28] appears, read: second compound 10 µM, first compound 0.316 µM.
Where [29] appears, read: second compound 10 µM, first compound 1 µM.
[30] abbreviates: second compound 10 µM, first compound 3.16 µM.
Where [31] appears, read: second compound 0.1 µM, first compound 10 µM.
The mark [32] stands for this setting: second compound 0.316 µM, first compound 10 µM.
[33] abbreviates: second compound 1 µM, first compound 10 µM.
The mark [34] stands for this setting: second compound 3.16 µM, first compound 10 µM.
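Note: spheroids exposed to compounds for seven days before readout.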

What is called IC50 is the concentration that inhibits the measured activity by half. In general, viability, T/C refers to the result in the treated group divided by that in the control group, in per cent. Take `CC(=O)OC12COC1CC(O)C1(C)C(=O)C(O)C3=C(C)C(OC(=O)C(O)C(NC(=O)OC(C)(C)C)c4ccccc4)CC(O)(C(OC(=O)c4ccccc4)C21)C3(C)C` (stereo not drawn) + CC1OCC2(CCN(c3cnc(Sc4ccnc(N)c4Cl)c(N)n3)CC2)C1N: the IC50 under setting [1] was below 10 nM; the IC50 under setting [2] was below 10 nM; the half-inhibitory concentration (IC50) under setting [3] is below 10 nM; the IC50 under setting [4] is below 10 nM; the IC50 under setting [5] is below 10 nM. The viability, T/C reads like this: (second compound 0.1 µM, first compound 0.01 µM) 18%; under setting [6], 28.1%; under setting [7], 21.9%; under setting [8], 27.2%; under setting [9], 28.7%; under setting [10], 36.1%. The viability, T/C (second compound 0.316 µM, first compound 0.01 µM) was 21.6%; the viability, T/C under setting [11] was 22.9%; the viability, T/C under setting [12] was 29.1%; the viability, T/C under setting [13] was 27.9%; the viability, T/C under setting [14] was 29.7%; the viability, T/C under setting [15] is 35.2%. The viability, T/C was 22.4% (second compound 1 µM, first compound 0.01 µM); 26.9% under setting [16]; 27.5% under setting [17]; 27.6% under setting [18]; 33.9% under setting [19]; 43.5% under setting [20]. Moreover, the viability, T/C runs as follows: (second compound 3.16 µM, first compound 0.01 µM) 21.5%; under setting [21], 28.4%; under setting [22], 22.5%; under setting [23], 25.4%; under setting [24], 26%; under setting [25], 28.3%. For the same molecule, the viability, T/C (second compound 10 µM, first compound 0.01 µM) was 19.9%; the viability, T/C under setting [26] was 24.5%; the viability, T/C under setting [27] is 28.3%; the viability, T/C under setting [28] is 24.1%; the viability, T/C under setting [29] is 31.7%; the viability, T/C under setting [30] was 38.5%.
`CC(=O)Nc1cccc(-n2c(=O)n(C3CC3)c(=O)c3c(Nc4ccc(I)cc4F)n(C)c(=O)c(C)c32)c1`: the viability, T/C was 31.7% [middle of 5 runs] (compound 0.0001 µM); 22.2% [middle of 5 runs] (compound 0.000316 µM); 18.4% [middle of 5 runs] (compound 0.001 µM); 13.8% [middle of 5 runs] (compound 0.00316 µM); 9.89% [middle of 5 runs] (compound 0.01 µM); 7.25% [middle of 5 runs] (compound 0.0316 µM). Besides, for the setting “curve of compound”, the IC50 was below 0.1 nM.
Consider `COC(=O)c1ccc2c(C(=Nc3ccc(N(C)C(=O)CN4CCN(C)CC4)cc3)c3ccccc3)c(O)[nH]c2c1` + C=CC(=O)N1CCN(c2nc(OCC3CCCN3C)nc3c2CCN(c2cccc4cccc(C)c24)C3)CC1CC#N, for which the concentration for half-maximal inhibition (IC50) (curve of first compound, second compound 0.0316 µM) came out at 456 nM; the half-inhibitory concentration (IC50) under setting [1] stood at 320 nM; the concentration for half-maximal inhibition (IC50) under setting [2] was found to be 154 nM; the IC50 under setting [3] was below 31.6 nM; the IC50 under setting [4] is below 31.6 nM. Besides, the viability, T/C (second compound 0.0316 µM, first compound 0.0316 µM) is 65.9%; the viability, T/C (second compound 0.0316 µM, first compound 0.1 µM) is 78.3%; the viability, T/C (second compound 0.0316 µM, first compound 0.316 µM) was 58.5%; the viability, T/C (second compound 0.0316 µM, first compound 1 µM) was 28.9%; the viability, T/C (second compound 0.0316 µM, first compound 3.16 µM) is 15.6%; the viability, T/C (second compound 0.0316 µM, first compound 10 µM) was 15%. For the same molecule, the viability, T/C was 88.9% under setting [6]; 87.6% under setting [7]; 46.3% under setting [8]; 25.4% under setting [9]; 9.49% under setting [10]; 9.82% under setting [31]. For the same molecule, the viability, T/C is 75.2% under setting [11]; 51% under setting [12]; 42.3% under setting [13]; 30.4% under setting [14]; 10.6% under setting [15]; 6.76% under setting [32]. Also, the viability, T/C is, setting by setting: under setting [16], 44.8%; under setting [17], 24.2%; under setting [18], 27.8%; under setting [19], 23.8%; under setting [20], 0.91%; under setting [33], 0.96%. For the same molecule, the viability, T/C under setting [21] is 0.1%; the viability, T/C under setting [22] was 0.08%; the viability, T/C under setting [23] is 0.07%; the viability, T/C under setting [24] is 0.05%; the viability, T/C under setting [25] is 0.03%; the viability, T/C under setting [34] is 0.05%.
With `COc1cc(OC)cc(N(CCNC(C)C)c2ccc3ncc(-c4cnn(C)c4)nc3c2)c1`, the viability, T/C by setting is: (compound 0.0316 µM) 99% [middle of 4 runs]; (compound 0.1 µM) 102% [middle of 4 runs]; (compound 1 µM) 98.2% [middle of 4 runs]; (compound 3.16 µM) 38.9% [middle of 4 runs]; (compound 10 µM) 0.57% [middle of 4 runs]. Besides, the concentration for half-maximal inhibition (IC50) (curve of compound) is 2.53 µM [middle of 4 runs].
As for `COc1cc(Nc2ncc3c(n2)-c2ccc(Cl)cc2C(c2c(F)cccc2OC)=NC3)ccc1C(=O)O` + C=CC(=O)N1CCN(c2nc(=O)n(-c3c(C)ccnc3C(C)C)c3nc(-c4c(O)cccc4F)c(F)cc23)C(C)C1, the IC50 is, setting by setting: under setting [1], below 31.6 nM; under setting [2], below 31.6 nM; under setting [3], below 31.6 nM; under setting [4], below 31.6 nM; under setting [5], below 31.6 nM. Moreover, the viability, T/C is, setting by setting: under setting [6], 29%; under setting [7], 18.9%; under setting [8], 20.6%; under setting [9], 42.2%; under setting [10], 61.3%; under setting [31], 39.2%. For the same molecule, the viability, T/C was 45.5% under setting [11]; 34.7% under setting [12]; 50.7% under setting [13]; 59.3% under setting [14]; 42.7% under setting [15]; 37.5% under setting [32]. Besides, the viability, T/C under setting [16] is 14.8%; the viability, T/C under setting [17] is 32.8%; the viability, T/C under setting [18] is 54.8%; the viability, T/C under setting [19] was 69.5%; the viability, T/C under setting [20] is 53.1%; the viability, T/C under setting [33] is 42.8%. Also, the viability, T/C under setting [21] is 30.7%; the viability, T/C under setting [22] is 32%; the viability, T/C under setting [23] was 48.5%; the viability, T/C under setting [24] is 37.5%; the viability, T/C under setting [25] is 40.9%; the viability, T/C under setting [34] was 35.7%. Further, the viability, T/C by setting is: under setting [26], 29.8%; under setting [27], 39.5%; under setting [28], 33.7%; under setting [29], 35.4%; under setting [30], 36.8%; (second compound 10 µM, first compound 10 µM) 29.3%.
